In test [1] the target is T1, CD38 NAD+ hydrolase activity in NH7-dCas9 cells (Jurkat clone) (Homo sapiens, UniProt P28907).
T1 construct: The assay utilized CD38 expressing NH7-dCas9 cells (Jurkat clone); host or cells: NH7-dCas9 cells (Jurkat clone)
T1 sequence (P28907 1-300): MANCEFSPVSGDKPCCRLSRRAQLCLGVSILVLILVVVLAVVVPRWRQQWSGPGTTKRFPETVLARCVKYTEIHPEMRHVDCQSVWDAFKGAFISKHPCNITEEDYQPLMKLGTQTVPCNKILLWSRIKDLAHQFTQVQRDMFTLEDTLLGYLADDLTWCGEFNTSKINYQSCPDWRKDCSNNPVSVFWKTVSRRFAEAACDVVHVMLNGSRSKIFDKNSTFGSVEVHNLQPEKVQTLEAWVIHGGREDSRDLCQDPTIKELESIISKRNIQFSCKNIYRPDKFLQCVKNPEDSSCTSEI
The experiment in a line: Fluorescence-based NAD+ hydrolase activity assay with human T cell line NH7-dCas9 cells-Jurkat clone (Assay 1). The note with it: read-out: Assay 1 Arithmetic mean IC50. As for the experimental part:
For the modified assay, the performance validation criteria of the assay as a High Throughput Screening (HTS): Z-factor within the plate was greater than 0.89 (optimal HTS z-factor >0.5) and the Intra-plate, inter-plate and day to day variability (CV) was less than 20%.
NAD+ hydrolase activity of a human T cell line treated with test compounds was measured using a fluorescence-based assay. NH7-dCas9 cells (Jurkat clone) were provided by the Weissman Lab (UCSF 1700 4th St., Byers Hall, Room 403B, San Francisco, CA 94158-2330). Briefly, cells were centrifuged, resuspended in 44 μl PBS/10^6 cells and plated in a 96 well black plate (CORNING) at a density of 1×10^6 per well.
Each test compound was received in a powder state and dissolved in DMSO as a 25 mM stock solution. Each test compound was serially diluted in order to generate a dose-response curve. The dilution series of each test compound in DMSO was prepared at 50 times the concentrations to be assayed. Each test compound was diluted to generate a 5-fold dilution series of 8 concentrations from 20 μM to 0.256 nM in order to assay 8 final concentrations ranging from 400 nM to 25.6 pM. One μl of the 50× concentration compound series was added to each well of the plate containing 1×10^6 cells in PBS.
Each plate had the following intra plate controls: 3 wells containing cells treated with vehicle only (DMSO), 3 wells of cells treated with the reference compound 78c at a final concentration of 50 nM and 2 wells containing only PBS (used as a background value).
(§1) The reaction was started by adding nicotinamide 1,N^6-etheno-adenine dinucleotide (Sigma Aldrich) to reach a final concentration of 80 µM. The samples were excited at 321-15 nm, and the emission of fluorescence was measured at 410-20 nm at 37° C. every minute for 1 hr in a Clariostar® microplate reader (BMG LABTECH). NAD+ hydrolase activity was calculated as the slope of the linear portion of the fluorescence-time curve using the MARS data analysis software (BMG LABTECH). The data were uploaded in the Collaborative Drug Design (CDD) Software and for each compound the IC50 was calculated by the software. Each compound was tested in 3 independent experiments on 3 separate days to establish the reproducibility of the results. For each plate, the z-factor was also calculated as a plate quality using the CDD software.

Test [2] concerns the target T2, recombinant human CD38 Protein (Homo sapiens, UniProt P28907).
T2 construct: purchased R&D System
T2 sequence (P28907 1-300): T1 sequence (P28907 1-300)
Briefly: Fluorescence-based NAD+ hydrolase activity assay with human recombinant CD38 protein (Assay 3). It counts as biochemical. The note with it: read-out: Assay 3 Arithmetic mean IC50. As for the experimental part: This protocol was modified from the following references (Muller et al. (1983); (Schultz et al. (2018); (Matalonga et al. (2017); and de Oliveira et al. (2018), supra.
NAD+ hydrolase activity of the human recombinant CD38 protein treated with test compounds was measured using a fluorescence-based assay. Briefly, recombinant human CD38 Protein (R&D System) was resuspended in 44 μl/well of Sucrose-Tris Buffer (Sucrose 0.25 M, Tris pH 7.4 40 mM) and plated in a 96-well black plate (CORNING) at a density of 10 ng/well.
Each test compound was received in a powder state and dissolved in DMSO as a 25 mM stock solution. Each test compound was serially diluted in order to generate a dose-response curve. The dilution series of each test compound in DMSO was prepared at 50× the concentrations to be assayed. Each test compound was diluted to generate a 5-fold dilution series of 8 concentrations from 20 μM to 0.256 nM in order to assay 8 final concentrations ranging from ranging from 400 nM to 25.6 pM. One μl of the 50× concentration compound series was added to each well of the plate containing 10 ng protein in Sucrose-Tris buffer.
as §1, with “started” for “started by”, “nm” for “nm,”, “Each compound was tested in 3 independent experiments on 3 separate days to establish the reproducibility of the results.” left out

The target of test [3] is T3, recombinant mouse CD38 Protein (Mus musculus, UniProt P56528).
T3 construct: purchased R&D System
T3 sequence (P56528 1-304): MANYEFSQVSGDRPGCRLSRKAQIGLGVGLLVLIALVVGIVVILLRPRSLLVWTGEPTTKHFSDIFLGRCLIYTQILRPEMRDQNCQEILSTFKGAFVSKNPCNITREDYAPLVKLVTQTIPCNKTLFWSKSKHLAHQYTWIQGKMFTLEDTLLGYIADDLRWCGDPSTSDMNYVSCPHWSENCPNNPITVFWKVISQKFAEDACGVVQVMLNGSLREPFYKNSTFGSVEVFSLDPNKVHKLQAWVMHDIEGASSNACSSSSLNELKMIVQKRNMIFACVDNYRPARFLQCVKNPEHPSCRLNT
Briefly: Fluorescence-based NAD+ hydrolase activity assay with mouse recombinant CD38 protein (Assay 5). It counts as biochemical. The note with it: read-out: Assay 5 Arithmetic mean IC50. As for the experimental part:
This protocol was modified from the following references: Muller et al. (1983); Schultz et al. (2018); Matalonga et al. (2017); and de Oliveira et al. (2018), supra.
NAD+ hydrolase activity of the mouse recombinant CD38 protein treated with test compounds was measured using a fluorescence-based assay. Briefly, recombinant mouse CD38 Protein (R&D System) was resuspended in 44 μl/well of Sucrose-Tris Buffer (Sucrose 0.25 M, Tris pH 7.4 40 mM) and plated in a 96 well black plate (CORNING) at a density of 2.5 ng/well.
Each test compound was received in a powder state and dissolved in DMSO as a 25 mM stock solution. Each test compound was serially diluted in order to generate a dose-response curve. The dilution series of each test compound in DMSO was prepared at 50 times the concentrations to be assayed. Each test compound was diluted to generate a 5-fold dilution series of 8 concentrations from 20 μM to 0.256 nM in order to assay 8 final concentrations ranging from 400 nM to 25.6 pM. One μl of the 50× concentration compound series was added to each well of the plate containing 2.5 ng of protein in Sucrose-Tris buffer.
Each plate had the following intra plate controls: 3 wells containing cells treated with vehicle only (DMSO), 3 wells of cells treated with the reference compounds 78c at a final concentration of 50 nM and 2 wells containing only Sucrose-Tris buffer (used as a background value).
as §1, with “started” for “started by”, “nm” for “nm,”, “Clariostar Microplate®” for “Clariostar® microplate”

Each structure is given as a SMILES string. Where only a bound is given, the exact number is not on record here.

As to `COCCNc1cc(NC(=O)c2cccc(-n3ccnc3)n2)ccn1` [Compound 10], the IC50 in test [1] and in test [2] was 1 to 50 nM in each case.

On to `NC(=O)c1cc(NC(=O)c2cccc(-n3ccnc3)n2)ccn1` [Compound 17], for which the IC50 in test [1], in test [2] and in test [3] was 1 to 50 nM each time.

For `CCN(C(C)=O)c1ccc(NC(=O)c2cccc(-n3ccnc3)n2)cn1` [Compound 19], the IC50 in test [1], in test [2] and in test [3] was 1 to 50 nM throughout.

For `O=C(O)c1ccc(NC(=O)c2cccc(-n3ccnc3)n2)cn1` [Compound 21], the IC50 in test [1], in test [2] and in test [3] was 1 to 50 nM throughout.

`CNC(=O)c1cc(NC(=O)c2cccc(-n3ccnc3)n2)ccn1` [Compound 23]: the IC50 in test [1] and in test [2] was 1 to 50 nM each time.

As for `O=C(Nc1ccccn1)c1cccc(-n2ccnc2)n1` [Compound 25], the IC50 in test [1] and in test [2] was 51 to 1000 nM throughout.

As for `Cc1cncn1-c1cccc(C(=O)Nc2cccnc2)n1` [Compound 26], the IC50 in test [1], in test [2] and in test [3] was 51 to 1000 nM throughout.

With `Cc1cc(C(=O)Nc2ccncc2)nc(-c2cncn2C)c1` [Compound 44], the IC50 in test [1] was less than 1 nM; in test [2] it was 1 to 50 nM; in test [3] it was 1 to 50 nM.

On to `O=C(Nc1ccc(C(F)(F)F)nc1)c1cccc(-c2cncs2)n1` [Compound 46], for which the 50% inhibitory concentration (IC50) in test [2] lay within 1 to 50 nM.

Regarding `Cc1ccc(C(=O)Nc2cccnc2)nc1-n1ccnc1` [Compound 58, 6-(1H-imidazol-1-yl)-5-methyl-N-(pyridin-3-yl)picolinamide], the IC50 was in the range of 51 to 1000 nM in test [1], 51 to 1000 nM in test [2] and 1 to 50 nM in test [3].

Take `COc1ccc(C(=O)Nc2cccnc2)nc1-n1ccnc1` [Compound 60]: the IC50 in test [1] is 51 to 1000 nM; in test [2], 51 to 1000 nM; in test [3], 1 to 50 nM.

As to `COc1ccc(-n2ccnc2)nc1C(=O)Nc1cccnc1` [Compound 63], the IC50 in test [1], in test [2] and in test [3] was 1 to 50 nM each time.

Consider `Nc1ccc(-n2ccnc2)nc1C(=O)Nc1ccncc1` [Compound 64, 3-amino-6-(1H-imidazol-1-yl)-N-(pyridin-4-yl)picolinamide], for which the values for the IC50 in test [1], in test [2] and in test [3] were less than 1 nM, 1 to 50 nM and less than 1 nM, respectively.

In the case of `Nc1ccc(-n2ccnc2)nc1C(=O)Nc1ccnc(F)c1` [Compound 65], the IC50 in test [1], in test [2] and in test [3] was less than 1 nM each time.

With `Nc1ccc(-n2ccnc2)nc1C(=O)Nc1ccnc(C(F)(F)F)c1` [Compound 66], the 50% inhibitory concentration (IC50) in test [1] was less than 1 nM; in test [2], 1 to 50 nM; in test [3], less than 1 nM.

As for `CNc1cc(C(=O)Nc2cccnc2)nc(-n2ccnc2)c1` [Compound 68], the IC50 in test [1] and in test [2] was less than 1 nM throughout.

Consider `O=C(Nc1cccnc1)c1ccnc(-n2ccnc2)n1` [Compound 69], for which the IC50 in test [1] is less than 1 nM; in test [2] it was 1 to 50 nM.

The record behind these values is US12509451B2, “Heteroaryl amide inhibitors of CD38” (NAPA THERAPEUTICS LTD., priority 2020, dated 2025).
